Where two headings read alike, the source gives them in different places. One block for each molecule: values may come before it.
Experiments:
[1] = tested on: H460 human lung cell line; experiment: Cell viability, ATP-LITE assay; type: cell-based; conditions: Homo sapiens
Description: (§1) The activity of the compounds against human cancer cell lines (PC3ML, H460, H1299, RS11846) were assessed by using the ATP-LITE assay (PerkinElmer). All cells were seeded in either F12 or RPMI1640 medium with 5 mM L-glutamine supplemented with 5% fetal bovine serum (Mediatech Inc.), penicillin and streptomycin (Omega). For maintenance, cells were cultured in 5% FBS. Cells plated into 96 well plates at varying initial densities depending on doubling time. H460 and H1299 plated at 2000 cells/well, A549 and PC3 at 3000 cells/well, and RS118456S at 10,000 cells/well. Compounds were diluted to final concentrations with 0.1% DMSO. Prior to dispensing compounds onto cells, fresh 5% media was placed into wells. Administration of compounds occurred 24 hours after seeding into the fresh media. Cell viability was evaluated using ATP-LITE reagent (PerkinElmer) after 72 hours of treatment. Data were normalized to the DMSO control-treated cells using Prism version 5.01 (Graphpad Software).

[2] = tested on: human lymphoma RS11846 cell line; experiment: Apoptosis, Annexin V-FITC and propidium iodide assay; type: cell-based; conditions: for EC50: Homo sapiens
[3] = tested on: PC3ML cells; experiment: Cell viability, ATP-LITE assay; type: cell-based, human; conditions: Homo sapiens, PC3-ML, ATP-LITE assay
Description: as §1

[4] = tested on: H1299 cell line; experiment: Cell viability, ATP-LITE assay; type: cell-based, human; conditions: Homo sapiens
Description: as §1

[5] = target: BCL-XL (Homo sapiens, UniProt Q07817); experiment: 1D 1H-NMR binding assay; design: key to 1D-^1H NMR: +++, Very Active; ++, Active; +, Mild; −, Weak; conditions: for 1D-^1H NMR: BCL-XL 25 μM, compound 200 μM; for 1D ^1H-NMR Binding Assay (BCL-XL): Table 9
Chain of BCL-XL (Q07817 whole entry): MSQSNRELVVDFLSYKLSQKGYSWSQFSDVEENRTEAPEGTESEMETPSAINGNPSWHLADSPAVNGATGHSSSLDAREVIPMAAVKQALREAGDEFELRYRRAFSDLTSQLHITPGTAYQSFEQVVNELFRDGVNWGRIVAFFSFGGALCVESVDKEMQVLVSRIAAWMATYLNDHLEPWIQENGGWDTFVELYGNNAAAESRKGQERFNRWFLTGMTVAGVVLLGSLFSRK
Description: By observing the aliphatic region of the spectra, binding could be readily detected due to chemical shift changes in active site methyl groups of Ile, Leu, Thr, Val or Ala (region between −0.8 and 0.3 ppm). All experiments were performed with a 600 MHz spectrometer Bruker Avance 600 equipped with four rf channels and z-axis pulse-field gradients.

[6] = tested on: B6Bcl-2 transgenic mice
Description: Transgenic mice expressing BCL-2 have been described as the B6 line. The BCL-2 transgene res a minigene version of a t(14;18) translocation in which the human BCL-2 gene is fused with the immunoglobulin heavy-chain (IgH) locus and associated IgH enhancer. The transgene was propagated on the Balb/c background.
After 24 hours, B6BCL2 mice were sacrificed by intraperitoneal injection of lethal dose of Avertin. Spleen was removed and weighed. […] Spleen tissue was fixed in z-FIX for 3 days and rinsed in PBS, and saved for histological analysis of spleen (H&E staining and TUNEL assay).

[7] = NCI-H460, heading: EC50 H460, Table 3, ATP-LITE assay, read-out: EC50 H460
[8] = Table 3, Annexin V-FITC and propidium iodide assay, heading: EC50 RS11846, read-out: EC50 RS11846
[9] = NCI-H1299, heading: EC50 H1299, Table 3, ATP-LITE assay, read-out: EC50 H1299
[10] = NCI-H460, ATP-LITE assay, read-out: EC50 H460
[11] = Annexin V-FITC and propidium iodide assay, read-out: EC50 RS11846
[12] = NCI-H1299, ATP-LITE assay, read-out: EC50 H1299
[13] = Table 3, heading: EC50 PC3ML, read-out: EC50 PC3ML
[14] = read-out: EC50 RS11846, Table 3, Annexin V-FITC and propidium iodide assay
[15] = NCI-H1299, read-out: EC50 H1299

- EC50 [1, 7]: 2.9 µM
- EC50 [2, 8]: 4.8 µM
- EC50 ([3]; Table 3, read-out: EC50 PC3ML): 10.2 µM
- EC50 [4, 9]: 3.1 µM
- 1D-^1H NMR ([5]; Table 3): +++
SMILES: Cc1cccc(CNC(=O)c2c(O)c(O)cc3c(O)c(-c4c(C)cc5c(C(=O)NCc6cccc(C)c6)c(O)c(O)cc5c4O)c(C)cc23)c1 [Compound 8h, 1,1′,6,6′,7,7′-hexahydroxy-3,3′-dimethyl-N^5,N^5′-bis(3-methylbenzyl)-2,2′-binaphthyl-5,5′-dicarboxamide]

SMILES: Cc1cc2cc(O)c(O)cc2c(O)c1-c1c(C)cc2cc(O)c(O)cc2c1O [Compound 13, 3,3′-dimethyl-2,2′-binaphthyl-1,1′,6,6′,7,7′-hexaol]
- Tox ([6]; Bcl-2 transgenic mouse, single ip injection 72 μmol/kg): 0
- activity in transgenic mice model ([6]; single ip 72 μmol/kg): no activity
- EC50 [1, 10]: > 10 µM
- EC50 [2, 11]: 24.5 µM
- induction of apoptosis of the RS11846 cell line ([2]; in words): weak or no apoptosis
- EC50 ([3]; read-out: EC50 PC3ML): > 10 µM
- EC50 [4, 12]: 13.4 µM
- 1D-^1H NMR ([5]; Table 4): −

- EC50 [1, 7]: 1.5 µM
- EC50 [2, 8]: 4.2 µM
- 1D-^1H NMR ([5]; Table 3): +++
SMILES: CCC(NC(=O)c1c(O)c(O)cc2c(O)c(-c3c(C)cc4c(C(=O)NC(CC)c5ccccc5)c(O)c(O)cc4c3O)c(C)cc12)c1ccccc1 (centres unmarked) [Compound 8f, 1,1′,6,6′,7,7′-hexahydroxy-3,3′-dimethyl-N^5,N^5′-bis(1-phenylpropyl)-2,2′-binaphthyl-5,5′-dicarboxamide]

- EC50 [1, 10]: 1.2 µM
- EC50 [2, 11]: 3.2 µM
- EC50 ([3]; read-out: EC50 PC3ML): 8.3 µM
- EC50 [4, 12]: 1.28 µM
- 1D-^1H NMR ([5]; Table 4): +
SMILES: Cc1cc2c(Cc3ccccc3)c(O)c(O)cc2c(O)c1-c1c(C)cc2c(Cc3ccccc3)c(O)c(O)cc2c1O [Compound 12d, 5,5′-dibenzyl-3,3′-dimethyl-2,2′-binaphthyl-1,1′,6,6′,7,7′-hexaol]

- EC50 [1, 7]: 16.7 µM
- EC50 [2, 8]: 12.6 µM
- EC50 [3, 13]: 12.2 µM
- EC50 [4, 9]: 28.7 µM
- 1D-^1H NMR ([5]; Table 3): +
SMILES: Cc1cc2c(C(=O)Nc3cccc(C(F)(F)F)c3)c(O)c(O)cc2c(O)c1-c1c(C)cc2c(C(=O)Nc3cccc(C(F)(F)F)c3)c(O)c(O)cc2c1O [Compound 8e, 1,1′,6,6′,7,7′-hexahydroxy-3,3′-dimethyl-N^5,N^5′-bis(3-(trifluoromethyl)phenyl)-2,2′-binaphthyl-5,5′-dicarboxamide]

- 1D-^1H NMR ([5]; Table 4): +
SMILES: Cc1cc2c(CC(C)C)c(O)c(O)cc2c(O)c1-c1c(C)cc2c(CC(C)C)c(O)c(O)cc2c1O [Compound 12a, 5,5′-diisobutyl-3,3′-dimethyl-2,2′-binaphthyl-1,1′,6,6′,7,7′-hexaol]

- EC50 [2, 8]: > 10 µM
- 1D-^1H NMR ([5]; Table 3): +
SMILES: Cc1cc2c(C(=O)NCC3CC3)c(O)c(O)cc2c(O)c1-c1c(C)cc2c(C(=O)NCC3CC3)c(O)c(O)cc2c1O [Compound 8l, N^5,N^5′-bis(cyclopropylmethyl)-1,1′,6,6′,7,7′-hexahydroxy-3,3′-dimethyl-2,2′-binaphthyl-5,5′-dicarboxamide]

SMILES: CCCCC(=O)c1c(O)c(O)cc2c(O)c(-c3c(C)cc4c(C(=O)CCCC)c(O)c(O)cc4c3O)c(C)cc12 [Compound XX, 1,1′-(1,1′,6,6′,7,7′-hexahydroxy-3,3′-dimethyl-2,2′-binaphthyl-5,5′-diyl)dipentan-1-one]
- EC50 ([2]; read-out: RS11846 EC50 (Annexin V- and propidium iodide assay), Table 9): 11.7 µM
- 1D ^1H-NMR Binding Assay (BCL-XL) [5]: +

SMILES: Cc1cc2c(C(=O)NCc3cccc(Cl)c3)c(O)c(O)cc2c(O)c1-c1c(C)cc2c(C(=O)NCc3cccc(Cl)c3)c(O)c(O)cc2c1O [Compound 8i, N^5,N^5′-bis(3-chlorobenzyl)-1,1′,6,6′,7,7′-hexahydroxy-3,3′-dimethyl-2,2′-binaphthyl-5,5′-dicarboxamide]
- EC50 ([1]; NCI-H460, read-out: EC50 H460): 3.3 µM
- EC50 [2, 14]: 7.3 µM
- EC50 ([3]; read-out: EC50 PC3ML, Table 3): 8.3 µM
- EC50 [4, 15]: 5.2 µM
- 1D-^1H NMR ([5]; Table 3): +++

- EC50 ([2]; Table 9, read-out: RS11846 EC50 (Annexin V- and propidium iodide assay)): 17.1 µM
- 1D ^1H-NMR Binding Assay (BCL-XL) [5]: +
SMILES: CCC(C)C(=O)c1c(O)c(O)cc2c(O)c(-c3c(C)cc4c(C(=O)C(C)CC)c(O)c(O)cc4c3O)c(C)cc12 (centres unmarked) [Compound XIX, 1,1′-(1,1′,6,6′,7,7′-hexahydroxy-3,3′-dimethyl-2,2′-binaphthyl-5,5′-diyl)bis(2-methylbutan-1-one)]

- EC50 [1, 7]: 4.1 µM
- EC50 [2, 8]: 4.7 µM
- EC50 [3, 13]: 8.3 µM
- EC50 [4, 9]: 5 µM
- 1D-^1H NMR ([5]; Table 3): +
SMILES: CCc1cccc(NC(=O)c2c(O)c(O)cc3c(O)c(-c4c(C)cc5c(C(=O)Nc6cccc(CC)c6)c(O)c(O)cc5c4O)c(C)cc23)c1 [Compound 8d, N^5,N^5′-bis(3-ethylphenyl)-1,1′,6,6′,7,7′-hexahydroxy-3,3′-dimethyl-2,2′-binaphthyl-5,5′-dicarboxamide]

- EC50 [1, 7]: 10.1 µM
- EC50 [2, 8]: 10.8 µM
- EC50 [3, 13]: 8.5 µM
- EC50 [4, 9]: 17 µM
- 1D-^1H NMR ([5]; Table 3): +
SMILES: Cc1cc2c(C(=O)Nc3ccc(Oc4ccccc4)cc3)c(O)c(O)cc2c(O)c1-c1c(C)cc2c(C(=O)Nc3ccc(Oc4ccccc4)cc3)c(O)c(O)cc2c1O [Compound 8c, 1,1′,6,6′,7,7′-hexahydroxy-3,3′-dimethyl-N^5,N^5′-bis(4-phenoxyphenyl)-2,2′-binaphthyl-5,5′-dicarboxamide]

- EC50 ([1]; NCI-H460, Table 3, ATP-LITE assay, read-out: EC50 H460): 0.7 µM
- EC50 [2, 8]: 5.6 µM
- 1D-^1H NMR ([5]; Table 3): +
SMILES: Cc1cccc(CCNC(=O)c2c(O)c(O)cc3c(O)c(-c4c(C)cc5c(C(=O)NCCc6cccc(C)c6)c(O)c(O)cc5c4O)c(C)cc23)c1 [Compound 8o, 1,1′,6,6′, 7,7′-hexahydroxy-3,3′-dimethyl-N^5,N^5′-bis(3-methylphenethyl)-2,2′-binaphthyl-5,5′-dicarboxamide]

- 1D-^1H NMR ([5]; Table 4): +
SMILES: Cc1cc2c(CCC(C)C)c(O)c(O)cc2c(O)c1-c1c(C)cc2c(CCC(C)C)c(O)c(O)cc2c1O [Compound 12b, 5,5′-diisopentyl-3,3′-dimethyl-2,2′-binaphthyl-1,1′,6,6′,7,7′-hexaol]

SMILES: Cc1cc2c(C(=O)NCc3ccccc3)c(O)c(O)cc2c(O)c1-c1c(C)cc2c(C(=O)NCc3ccccc3)c(O)c(O)cc2c1O [Compound 8g, N^5,N^5′-dibenzyl-1,1′,6,6′,7,7′-hexahydroxy-3,3′-dimethyl-2,2′-binaphthyl-5,5′-dicarboxamide]
- EC50 ([1]; NCI-H460, read-out: EC50 H460): 4.6 µM
- EC50 [2, 14]: 9.3 µM
- EC50 ([3]; read-out: EC50 PC3ML, Table 3): 13.7 µM
- EC50 [4, 15]: 3.6 µM
- 1D-^1H NMR ([5]; Table 3): +

- EC50 ([1]; NCI-H460, Table 3, ATP-LITE assay, heading: EC50 H460, read-out: EC50 H460): 3.5 µM
- EC50 [4, 9]: 8 µM
- 1D-^1H NMR ([5]; Table 3): +
SMILES: Cc1cc2c(C(=O)Nc3ccccc3)c(O)c(O)cc2c(O)c1-c1c(C)cc2c(C(=O)Nc3ccccc3)c(O)c(O)cc2c1O [Compound 8a, 1,1′,6,6′,7,7′-hexahydroxy-3,3′-dimethyl-N^5,N^5′-diphenyl-2,2′-binaphthyl-5,5′-dicarboxamide]

- EC50 [1, 7]: 8.5 µM
- EC50 [2, 8]: 13.7 µM
- EC50 [3, 13]: 12.2 µM
- EC50 [4, 9]: 8 µM
- 1D-^1H NMR ([5]; Table 3): +
SMILES: Cc1cc2c(C(=O)NC3CCCC3)c(O)c(O)cc2c(O)c1-c1c(C)cc2c(C(=O)NC3CCCC3)c(O)c(O)cc2c1O [Compound 8b, N^5,N^5′-dicyclopentyl-1,1′,6,6′,7,7′-hexahydroxy-3,3′-dimethyl-2,2′-binaphthyl-5,5′-dicarboxamide]

Reference: US8039668B2, “Naphthalene-based inhibitors of anti-apoptotic proteins” (Burnham Institute for Medical Research, priority 2008, dated 2011)
